Results: ChEMBL document CHEMBL1201862, “PubChem BioAssay data set” (2004)
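Method: 48-hour compound exposure of cells in 96-well plates, five concentrations, linear interpolation of endpoints. GI50 = concentration required for 50% inhibition of growth.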 Calls of active or inactive are those of the source. Rule as the data show it: active = GI50 up to about 1.1 µM and inactive = higher.

Legend:
Assay in all cases: growth of human tumour cells (NCI), 48 h
[1] = tested on: NCI-H522
[2] = tested on: DLD-1
[3] = tested on: UO-31
[4] = tested on: OVCAR-3
[5] = tested on: M14
[6] = tested on: SF-539
[7] = tested on: M19-MEL
[8] = tested on: RPMI-8226
[9] = tested on: HOP-62
[10] = tested on: SR
[11] = tested on: SNB-75
[12] = tested on: SK-MEL-2
[13] = tested on: A498
[14] = tested on: 786-0
[15] = tested on: DU-145
[16] = tested on: MDA-MB-435
[17] = tested on: MDA-MB-231
[18] = tested on: T47D
[19] = tested on: PC-3
[20] = tested on: Hs-578T

SMILES	GI50 [1]	GI50 [2]	GI50 [3]	GI50 [4]	GI50 [5]	GI50 [6]	GI50 [7]	GI50 [8]	GI50 [9]	GI50 [10]	GI50 [11]	GI50 [12]	GI50 [13]	GI50 [14]	GI50 [15]	GI50 [16]	GI50 [17]	GI50 [18]	GI50 [19]	GI50 [20]
CC1(C)CCCC2(C)[C@@H]1CC[C@]13C[C@](C)(CC[C@@H]21)[C@@H]3CO (some centres not stated)	> 100 µM (inactive)	> 100 µM (inactive)	> 100 µM (inactive)	> 100 µM (inactive)	> 100 µM (inactive)	> 100 µM (inactive)	> 100 µM (inactive)	> 100 µM (inactive)	> 100 µM (inactive)	> 10 µM (inactive)	46.7 µM (inactive)									
CC(C)(C)CI	17.5 µM (inactive)	34.2 µM (inactive)	> 10 µM (inactive)	19.1 µM (inactive)	25 µM (inactive)	88.5 µM (inactive)	23 µM (inactive)			25.4 µM (inactive)	26.4 µM (inactive)	19.8 µM (inactive)	41.6 µM (inactive)							
C=CCN1C(N)=C(C(N)=O)S/C1=C1/SC(=S)N(c2ccc(C)cc2)C1=O	> 100 µM (inactive)		> 100 µM (inactive)	> 100 µM (inactive)		> 100 µM (inactive)	> 100 µM (inactive)	> 100 µM (inactive)		> 100 µM (inactive)	12.6 µM (inactive)	> 100 µM (inactive)	3.65 µM (inactive)							
O=C(CCl)NC(Cc1ccc(F)cc1)C(=O)O (configuration not stated)	> 100 µM (inactive)	> 88.9 µM (inactive)	> 100 µM (inactive)	> 100 µM (inactive)		> 100 µM (inactive)	> 100 µM (inactive)	> 100 µM (inactive)	> 100 µM (inactive)		> 100 µM (inactive)	> 100 µM (inactive)	> 100 µM (inactive)							
COc1ccc(CNc2nc3cc(C(F)(F)F)ccc3nc2C)cc1OC	21.9 µM (inactive)	35.7 µM (inactive)	24 µM (inactive)	32.5 µM (inactive)	20.3 µM (inactive)	29.2 µM (inactive)	32.8 µM (inactive)	27.1 µM (inactive)	20.8 µM (inactive)		18.5 µM (inactive)	19.5 µM (inactive)	24.3 µM (inactive)	22 µM (inactive)						
O=c1ccc2ccc(S)cc2o1	87.3 µM (inactive)		> 100 µM (inactive)	> 100 µM (inactive)	> 100 µM (inactive)	> 100 µM (inactive)		99.8 µM (inactive)	> 100 µM (inactive)	> 100 µM (inactive)	> 100 µM (inactive)	> 100 µM (inactive)	> 100 µM (inactive)	> 100 µM (inactive)	> 100 µM (inactive)	> 100 µM (inactive)	> 100 µM (inactive)	> 100 µM (inactive)	> 100 µM (inactive)	> 100 µM (inactive)
CC(C)(C)c1cc(C(=O)/C=C/c2ccc(O)c(O)c2O)cc(C(C)(C)C)c1O	1.08 µM (active)		2.67 µM (inactive)	3.52 µM (inactive)	5.46 µM (inactive)	2.92 µM (inactive)		1.59 µM (inactive)	7.08 µM (inactive)	1.45 µM (inactive)	1.95 µM (inactive)	4.41 µM (inactive)	14 µM (inactive)	4.43 µM (inactive)	10.5 µM (inactive)	6.89 µM (inactive)	12 µM (inactive)	2 µM (inactive)	3.67 µM (inactive)	3.99 µM (inactive)
N#CC(NC12CC3CC(CC(C3)C1)C2)c1ccccc1C(F)(F)F (configuration not stated)	> 100 µM (inactive)	> 100 µM (inactive)	> 100 µM (inactive)	> 100 µM (inactive)	> 100 µM (inactive)	> 100 µM (inactive)	> 100 µM (inactive)	> 100 µM (inactive)	> 100 µM (inactive)	> 100 µM (inactive)		> 100 µM (inactive)								
Cc1c2ccnc(C(F)(F)F)c2cc2c1[nH]c1ccccc12	> 125 µM (inactive)	> 125 µM (inactive)	> 125 µM (inactive)	114 µM (inactive)		99.1 µM (inactive)	> 125 µM (inactive)	85.1 µM (inactive)	73.3 µM (inactive)		64 µM (inactive)	> 125 µM (inactive)	11.4 µM (inactive)							
COc1cc2nc(-c3cccc(N(C)C)c3)cc(O)c2cc1OC	2.81 µM (inactive)	4.5 µM (inactive)	5.65 µM (inactive)	1.52 µM (inactive)	2.07 µM (inactive)	2.66 µM (inactive)	5.55 µM (inactive)	3.65 µM (inactive)	3.02 µM (inactive)	5.14 µM (inactive)			6.03 µM (inactive)	3.57 µM (inactive)						
CC(O)C(O)C(N)CC=O (configuration not stated)	79.3 µM (inactive)	> 500 µM (inactive)	> 500 µM (inactive)	> 500 µM (inactive)		> 500 µM (inactive)	> 500 µM (inactive)	> 500 µM (inactive)	> 500 µM (inactive)		> 500 µM (inactive)	> 500 µM (inactive)	36.1 µM (inactive)							
O=C1c2ccccc2C(=O)N1[C@@H](Cc1ccccc1)C(=O)n1cccc1CO	> 100 µM (inactive)		> 100 µM (inactive)	> 100 µM (inactive)	> 100 µM (inactive)	> 100 µM (inactive)		93.8 µM (inactive)	> 100 µM (inactive)	> 100 µM (inactive)	> 100 µM (inactive)	> 100 µM (inactive)	> 100 µM (inactive)	> 100 µM (inactive)	> 100 µM (inactive)	> 100 µM (inactive)	> 100 µM (inactive)	> 100 µM (inactive)	> 100 µM (inactive)	> 100 µM (inactive)
O=C1C=C[C@@H](COC2OC(CO)C(O)C(O)C2O)O1 (some centres not stated)	5.14 µM (inactive)	3.35 µM (inactive)	50.2 µM (inactive)	16.8 µM (inactive)		5.6 µM (inactive)	12.8 µM (inactive)	3.16 µM (inactive)	56.2 µM (inactive)		14.9 µM (inactive)	13.6 µM (inactive)	16.1 µM (inactive)							
CC1=CC[C@@H]2[C@@H](CC[C@@]2(C)O)C(C)(C)[C@H]1CC[C@@H]1[C@@]2(C)CCC(=O)C(C)(C)O[C@@H]2CC[C@]1(C)O	18.5 µM (inactive)		22.5 µM (inactive)	37.7 µM (inactive)	25.3 µM (inactive)	17.3 µM (inactive)		19.7 µM (inactive)	32.9 µM (inactive)	19 µM (inactive)	65.6 µM (inactive)	36.7 µM (inactive)	31 µM (inactive)	24.7 µM (inactive)	42.9 µM (inactive)	30.7 µM (inactive)	45.6 µM (inactive)	43.5 µM (inactive)	29.4 µM (inactive)	22.8 µM (inactive)
O=C(CSc1nc2ccccc2c2ccccc12)c1ccccc1	> 100 µM (inactive)		> 100 µM (inactive)	> 100 µM (inactive)	> 100 µM (inactive)	> 100 µM (inactive)		> 100 µM (inactive)	> 100 µM (inactive)	> 100 µM (inactive)	13.8 µM (inactive)	> 100 µM (inactive)	> 100 µM (inactive)	> 100 µM (inactive)	> 100 µM (inactive)	> 100 µM (inactive)	> 100 µM (inactive)	> 100 µM (inactive)	> 100 µM (inactive)	0.0226 µM (active)
